# What was measured:
# CLBL-1 = assay: Cytotoxicity assay (cell counting); format: cell-based; settings: Canis lupus familiaris; CLBL-1, canine B-cell lymphoma; 72 hours incubation
# Experimental: (§1) Cells were plated in 24-well plates. After cells were allowed to recover for 24 hours, NVX-412 was added in fresh growth medium. The maximal DMSO concentration reached in all experiments was below 0.01%. Respective control experiments at the highest DMSO concentration were performed in order to rule out DMSO-induced effects. After 72 hours incubation the proportion of viable cells was determined by cell counting with a Z1 Coulter Particle Counter (Beckman Coulter, Vienna, AUT), a ViCell XR (Beckman Coulter, Vienna, AUT) or a CASY® Cell Counter (Schärfe, Reutlingen, Germany). Cytotoxicity was expressed as IC50 values that were derived from the corresponding dose–response curves.
# KG-1a = assay: Cytotoxicity assay (cell counting); format: cell-based; settings: Homo sapiens, AML, 72 hours incubation
# Experimental: as §1
# MCF-7 = assay: Cytotoxicity assay (cell counting); format: cell-based; settings: Homo sapiens, MCF7; MCF-7, breast adenocarcinoma; 72 hours incubation
# Experimental: as §1
# OSW = assay: Cytotoxicity assay (cell counting); format: cell-based; settings: Canis lupus familiaris, canine T-cell lymphoma, 72 hours incubation
# Experimental: as §1
# Raji = assay: Cytotoxicity assay (cell counting); format: cell-based; settings: Homo sapiens, Burkitt lymphoma, 72 hours incubation
# Experimental: as §1
# SU-DHL-8 = assay: Cytotoxicity assay (cell counting); format: cell-based; settings: Homo sapiens; SU-DHL-8, B-cell lymphoma; 72 hours incubation
# Experimental: as §1
# p-p53 (Ser15) = assay: Western Blot for p-p53 (Ser15) in HCT116 cells; format: cell-based, human; settings: HCT116, 24 and 48 hours
# Experimental: (§2) Treated cells were directly lysed in NP40 cell lysis buffer (Invitrogen, Grand Island, NY, USA) containing protease and phosphatase inhibitors. Protein concentrations were measured colorimetrically (DC Protein Assay, Bio-Rad Laboratories, Hercules, CA, USA). Proteins were separated by SDS - polyacrylamide gel electrophoresis and blotted onto nitrocellulose membranes (Whatman™, Vienna, AUT). Equal loading was checked by Ponceau S (SERVA, Heidelberg, GER) staining. Bound antigen was visualized with the enhanced chemiluminescence detection system (Roche Diagnostics, Indianapolis, IN, USA). These procedures were performed according to the manufacturer’s protocols. Antibodies specific for the following proteins of interest were used: pChk1 (Ser296), p-p53 (Ser15), β-Tubulin and GAPDH were obtained from Cell Signaling Technology (Danvers, MA, USA) at 1∶1000 dilution. Secondary antibodies were peroxidase-tagged goat anti-rabbit or anti-mouse IgGs (Cell Signaling Technology) (1∶2000).
# HCT116 cells = assay: DNA replication rate (BrdU incorporation ELISA); format: cell-based, human
# Experimental: (§3) HeLa and HCT116 cells were plated in black 96-well plates. After cells were allowed to recover for 24 hours NVX-412 or CPT was added in fresh growth medium. After 24 hours of incubation a chemiluminescent BrdU Incorporation ELISA (Roche Applied Science, Penzberg, Germany) was performed with half of the plates according to the manufacturer’s protocol. Cells in the remaining plates were allowed to recover for 24 hours in normal growth medium before DNA replication was measured (wash-out experiment). To check whether a possible decline in DNA replication rate is not simply due to lower cell numbers because of cell death induction, the proportion of viable cells was determined in parallel by a MTT-based cytotoxicity assay according to the manufacturer’s protocol (EZ4U, Biomedica, Vienna, Austria). Colorimetric (at 492 and 620 nm) and chemiluminescent measurements were performed using a FLUOstar OPTIMA (BMG Labtech, Ortenberg, Germany).
# HeLa cells = assay: DNA replication rate (BrdU incorporation ELISA); format: cell-based, human
# Experimental: as §3
# pChk1 (Ser296) = assay: Western Blot for pChk1 (Ser296) in HCT116 cells; format: cell-based, human; settings: HCT116, 150 nM, 0–48 hours
# Experimental: as §2
# γH2AX (Ser139) = assay: Immunofluorescence staining and quantification of γH2AX in HeLa cells; format: cell-based, human
# Experimental: HCT116 and HeLa cells were seeded on glass cover slips in 6-well plates. 24 hours after plating, HCT116 cells were incubated with 0.15, 0.5 and 1 µM NVX-412 and 1 µM CPT for 24 hours for staining of p-p53. For investigating γH2AX, HeLa cells were incubated with 0.21, 0.5 and 1 µM NVX-412 and 1 µM CPT for 3 or 24 hours. Additionally, cells were allowed to recover for 24 hours in normal growth medium after 24 hours of incubation with NVX-412 or CPT (wash-out experiment). After the respective treatments, cells were washed and fixed with 4% methanol-free formaldehyde (Polysciences Inc. Warrington, PA, USA) for 15 minutes at room temperature and then permeabilized with 0.2% Triton X-100/PBS for 2 minutes at room temperature. After blocking with goat serum (5%) in 1% BSA/0.3% Triton X-100/PBS, the respective primary antibody was added and cells were incubated at 4°C overnight. Antibodies used were: mouse p-p53 (Ser15) (Cell Signaling Technology, Danvers, MA, USA) at 1∶100 dilution and mouse p-H2AX (Ser139) (Millipore, Billerica, MA, USA) at 1∶1000 dilution in 1% BSA/PBS, respectively. Cells were then washed 3 times for 10 minutes with 0.25% BSA/0.1% Triton X-100/PBS and incubated with the Alexa Fluor 488 conjugated secondary anti-mouse antibody (1∶1000 in 0.25% BSA/0.1% Triton X-100/PBS) for 1 hour at room temperature in the dark. Cells were washed 3 times for 10 minutes with 0.05% Tween-20/PBS containing Hoechst 33342 (Sigma Aldrich, Vienna, AUT) and mounted with mounting medium (Fluoprep, bioMérieux, Marcy l'Etoile, FRA). Fluorescence was immediately recorded on a Zeiss LSM700 laser scanning microscope.
# The common procedure for assessing γH2AX induction is to count γH2AX foci. Since with NVX-412 and the positive control CPT γH2AX activation was that strong, no distinguishable and countable foci were seen. Therefore, the average γH2AX fluorescence intensity per nucleus was determined. To this end, γH2AX intensities within a certain field were measured using Quantity One –4.6.9 (Basic freeware version, Bio-Rad Laboratories, Hercules, CA, USA) and were divided by the number of nuclei in this field.
# all cell lines tested = assay: β-galactosidase staining (cellular senescence); format: cell-based; settings: data not shown
smiles,measurement,setting,value
"O=C(NNc1nc2cc(F)ccc2n2cccc12)c1cnccn1 [NVX-412, Pyrazine-2-carboxylic acid N’- (7-fluoro-pyrrolo[1,2-α]quinoxalin-4-yl)-hydrazide-oxalic acid co-crystal]",IC50,CLBL-1,40 nM
same,IC50,KG-1a,145 nM
same,IC50,MCF-7,150 nM
same,IC50,OSW,103 nM
same,IC50,Raji,60 nM
same,IC50,SU-DHL-8,80 nM
same,Phosphorylated p53 (Western Blot),p-p53 (Ser15); below or at the IC50,negative for phosphorylated p53
same,Phosphorylated p53 (Western Blot),p-p53 (Ser15); concentrations above the IC50,strong induction
same,DNA replication rate (BrdU incorporation),"HCT116 cells; HCT116, 24 hours treatment",reduction of DNA replication
same,DNA replication rate after recovery (wash-out),"HCT116 cells; HCT116, 24 hours treatment then 24 hours in normal growth medium",the rate increased to normal levels
same,DNA replication rate (BrdU incorporation),HeLa cells; 24 hours treatment,reduction of DNA replication
same,DNA replication rate after recovery (wash-out),HeLa cells; 24 hours treatment then 24 hours in normal growth medium,the rate increased to normal levels
same,Chk1 Ser296 phosphorylation,pChk1 (Ser296),increased after 4 hours
same,γH2AX induction,γH2AX (Ser139); 3 hours,Only a slight induction of γH2AX
same,γH2AX levels after recovery (wash-out),γH2AX (Ser139); 24 hours treatment then 24 hours without drug,decreased to nearly basal levels
same,γH2AX levels,"γH2AX (Ser139); 24 hours, 0.21, 0.5 and 1 µM",elevated after a 24 hour treatment in a dose-dependent manner
same,γH2AX staining increase (average fluorescence intensity per nucleus),"γH2AX (Ser139); 24 hours, highest concentration tested, p-value <0.0001",up to 15 fold
same,β-galactosidase staining (senescence),all cell lines tested,negative in all cell lines tested

# Source: paper PMC3441706 (PLoS ONE, 2012)
